From patent US20250059183A1, “PYRIDINE[4,3-D]PYRIMIDINE COMPOUND AS TLR7/8 AGONIST” (SHANGHAI VISONPHARMA CO., LTD., priority 2021, published 2025) come the findings set out here.

Test [1] concerns the target T1, human TLR7 (Homo sapiens, UniProt Q9NYK1).
T1 construct: host or cells: HEK-Blue hTLR7 (HEK293-derived reporter cells)
T1 sequence (Q9NYK1 27-1049): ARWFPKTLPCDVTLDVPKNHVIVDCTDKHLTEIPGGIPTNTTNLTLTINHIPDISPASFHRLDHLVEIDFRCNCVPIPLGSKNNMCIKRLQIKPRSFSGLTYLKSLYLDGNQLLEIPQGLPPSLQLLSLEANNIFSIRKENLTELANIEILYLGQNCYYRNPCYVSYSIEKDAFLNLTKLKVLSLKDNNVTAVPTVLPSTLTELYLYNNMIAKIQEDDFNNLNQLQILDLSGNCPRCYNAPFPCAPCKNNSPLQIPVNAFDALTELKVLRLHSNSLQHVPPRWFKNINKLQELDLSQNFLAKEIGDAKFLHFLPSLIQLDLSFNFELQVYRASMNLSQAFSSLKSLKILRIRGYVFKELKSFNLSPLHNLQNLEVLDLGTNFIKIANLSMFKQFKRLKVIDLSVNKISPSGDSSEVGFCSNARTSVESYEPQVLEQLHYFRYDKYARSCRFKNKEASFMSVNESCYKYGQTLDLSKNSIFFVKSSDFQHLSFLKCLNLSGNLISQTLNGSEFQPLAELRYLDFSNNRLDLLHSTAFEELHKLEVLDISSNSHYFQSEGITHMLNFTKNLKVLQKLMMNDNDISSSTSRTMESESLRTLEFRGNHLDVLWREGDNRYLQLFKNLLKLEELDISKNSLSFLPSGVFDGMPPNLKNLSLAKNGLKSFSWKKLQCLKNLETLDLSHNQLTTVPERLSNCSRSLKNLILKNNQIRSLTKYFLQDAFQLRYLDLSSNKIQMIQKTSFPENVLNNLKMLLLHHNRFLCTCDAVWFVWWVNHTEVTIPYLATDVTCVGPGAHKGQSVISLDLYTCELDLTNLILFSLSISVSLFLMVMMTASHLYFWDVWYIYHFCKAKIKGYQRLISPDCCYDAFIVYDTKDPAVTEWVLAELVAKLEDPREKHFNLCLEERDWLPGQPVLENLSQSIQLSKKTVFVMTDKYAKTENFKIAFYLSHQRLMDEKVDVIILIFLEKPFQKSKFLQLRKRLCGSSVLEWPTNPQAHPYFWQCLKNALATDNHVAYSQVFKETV
In words: HEK-Blue hTLR7 SEAP reporter gene agonist assay. The class given is cell-based. The settings on record: HEK-Blue hTLR7 cells, 16 to 22 hours incubation. How it is done: (§1) HEK-Blue™ cells that stably express human TLR7 or TLR8 are used to evaluate the agonistic activity of the compounds on TLR7 or TLR8, which is determined by the induction of the expression of SEAP reporter gene under the control of minimum IFN-β promoter fusion to 5×NF-κB and AP-1 binding sites. The assay is conducted as below:
(§2) HEK-Blue™ hTLR7 (Invivogen, 80,000 cells per well) or HEK-Blue™ hTLR8 (Invivogen, 60,000 cells per well) were added to the 96-well cell culture plate, followed by adding of the test compound. The final concentration of the test compound in the medium ranged from […], and was incubated for 16 to 22 hours. According to the manufacturer's instructions, the HEK-Blue assay reagent Quanti-blue (Invivogen) was used to measure SEAP levels in cell media. Optical density at 650 nm (OD650) was measured by Neo2 multifunction plate reader (Bio-tek). The half effective concentration (EC50) was calculated using GraphPad Prism.
Background: Reporter assays use an easily measured gene product as a stand-in for the process of interest.

In test [2] the target is T2, human TLR8 (Homo sapiens, UniProt Q9NR97).
T2 construct: host or cells: HEK-Blue hTLR8 (HEK293-derived reporter cells)
T2 sequence (Q9NR97 27-1041): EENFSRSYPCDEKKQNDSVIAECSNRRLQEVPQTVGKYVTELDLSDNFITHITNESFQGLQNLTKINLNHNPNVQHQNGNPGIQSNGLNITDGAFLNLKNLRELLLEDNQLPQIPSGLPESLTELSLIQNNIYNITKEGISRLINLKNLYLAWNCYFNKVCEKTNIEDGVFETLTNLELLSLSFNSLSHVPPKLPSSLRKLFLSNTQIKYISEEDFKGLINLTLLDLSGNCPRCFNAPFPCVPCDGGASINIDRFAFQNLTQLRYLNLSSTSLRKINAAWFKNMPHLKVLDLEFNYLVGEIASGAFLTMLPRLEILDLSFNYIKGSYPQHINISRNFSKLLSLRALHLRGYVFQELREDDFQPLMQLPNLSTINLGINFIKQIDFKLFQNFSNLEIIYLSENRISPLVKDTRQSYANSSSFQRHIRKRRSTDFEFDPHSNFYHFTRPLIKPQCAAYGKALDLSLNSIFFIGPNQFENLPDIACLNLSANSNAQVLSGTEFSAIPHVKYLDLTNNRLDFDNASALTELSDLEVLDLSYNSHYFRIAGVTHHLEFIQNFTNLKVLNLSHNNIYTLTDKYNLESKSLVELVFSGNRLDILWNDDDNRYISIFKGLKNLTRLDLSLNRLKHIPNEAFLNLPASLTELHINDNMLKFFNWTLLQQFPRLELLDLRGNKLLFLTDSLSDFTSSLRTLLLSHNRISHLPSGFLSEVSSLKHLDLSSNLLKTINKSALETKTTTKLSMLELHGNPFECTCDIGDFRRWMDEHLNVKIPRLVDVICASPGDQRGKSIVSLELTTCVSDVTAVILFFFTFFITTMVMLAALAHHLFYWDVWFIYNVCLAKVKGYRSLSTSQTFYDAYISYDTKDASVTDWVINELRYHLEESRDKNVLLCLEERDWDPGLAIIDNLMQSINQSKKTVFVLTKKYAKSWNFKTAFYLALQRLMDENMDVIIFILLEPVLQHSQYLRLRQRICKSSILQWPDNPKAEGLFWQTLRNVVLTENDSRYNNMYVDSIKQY
Nature of the test: HEK-Blue hTLR8 SEAP reporter gene agonist assay. The note with it: HEK-Blue hTLR8 cells, 16 to 22 hours incubation. The class given is cell-based. The procedure: as §1, §2

Each structure is given as a SMILES string.

Regarding `CCCCNc1nc(N)nc2ccn(Cc3ccc(CN4CCCC4)cc3)c(=O)c12` [Compound I-1, 2-amino-4-(butylamino)-6-(4-(pyrrolidin-1-ylmethyl)benzyl)pyrido[4,3-d]pyrimidin-5(6H)-one], the EC50 (as a rule, the concentration needed to bring the measured effect to its halfway point) in test [1] came out at 81 nM; in test [2], 58 nM.
As for `CCCCNc1nc(N)nc2ccn(Cc3ccc(CN4CCCC4)cc3OC)c(=O)c12` [Compound I-2, 2-amino-4-(butylamino)-6-(2-methoxy-4-(pyrrolidin-1-ylmethyl)benzyl)pyrido[4,3-d]pyrimidin-5(6H)-one], the EC50 in test [1] was found to be 64 nM; in test [2] it was 107 nM.
As to `CCCCNc1nc(N)nc2ccn(Cc3ccc(C(=O)N4CCNCC4)cc3)c(=O)c12` [Compound I-14, 2-amino-4-(butylamino)-6-(4-(piperazine-1-carbonyl)benzyl)pyrido[4,3-d]pyrimidin-5(6H)-one], the values for the EC50 in test [1] and in test [2] were 85 nM and 77 nM, respectively.
For `CCCCNc1nc(N)nc2ccn(Cc3ccc(CN(C)C)cc3)c(=O)c12` [Compound I-35, 2-amino-4-(butylamino)-6-(4-((dimethylamino)methyl)benzyl)pyrido[4,3-d]pyrimidin-5(6H)-one], the EC50 was found to be 87 nM in test [1] and 58 nM in test [2].
The like results for `CCCCNc1nc(N)nc2ccn(Cc3ccc(CN4CCCC4)cc3F)c(=O)c12` [Compound I-51, 2-amino-4-(butylamino)-6-(2-fluoro-4-(pyrrolidin-1-ylmethyl)benzyl)pyrido[4,3-d]pyrimidin-5(6H)-one] were, in that order, 98 nM and 88 nM.
The like results for `CCCCNc1nc(N)nc2ccn(Cc3ccc(CN4CC5(COC5)C4)cc3)c(=O)c12` [Compound I-52, 6-(4-((2-oxa-6-azaspiro[3.3]heptan-6-yl)methyl)benzyl)-2-amino-4-(butylamino)pyri do[4,3-d]pyrimidin-5(6H)-one] were, in that order, 83 nM and 56 nM.
Regarding `CCCCNc1nc(N)nc2ccn(Cc3ccc(C(=O)N4CCN(C(C)C)CC4)cc3)c(=O)c12` [Compound I-53, 2-amino-4-(butylamino)-6-(4-(4-isopropylpiperazine-1-carbonyl)benzyl)pyrido[4,3-d]pyrimidin-5(6H)-one], the figures for the EC50 in test [1] and in test [2] were 61 nM and 92 nM, respectively.
With `CCCCNc1nc(N)nc2ccn(Cc3ccc(C(=O)N4C5CNCC4C5)cc3)c(=O)c12` [Compound I-65, 6-(4-(3,6-diazabicyclo[3.1.1]heptane-6-carbonyl)benzyl)-2-amino-4-(butylamino)pyri do[4,3-d]pyrimidin-5(6H)-one], the 50% effective concentration (EC50) worked out at 203 nM in test [1] and 64 nM in test [2].
The like results for `CCCCNc1nc(N)nc2ccn(Cc3ccc(C(=O)N4CCNCC4)cc3OC)c(=O)c12` [Compound I-72, 2-amino-4-(butylamino)-6-(2-methoxy-4-(piperazine-1-carbonyl)benzyl)pyrido[4,3-d]pyrimidin-5(6H1)-one] were, in that order, 64 nM and 81 nM.
With `CCCCNc1nc(N)nc2ccn(Cc3ccc(C(=O)N4CCN(C)CC4)c(OC)c3)c(=O)c12` [Compound I-79, 2-amino-4-(butylamino)-6-(3-methoxy-4-(4-methylpiperazine-1-carbonyl)benzyl)pyrido[4,3-d]pyrimidin-5(6H)-one], the EC50 is 87 nM in test [1] and 105 nM in test [2].
For the molecule `CCCCNc1nc(N)nc2ccn(Cc3ccc(CCN(C)C)cc3)c(=O)c12` [Compound I-90, 2-amino-4-(butylamino)-6-(4-(2-(dimethylamino)ethyl)benzyl)pyrido[4,3-d]pyrimidin-5(6H)-one], the EC50 is 68 nM in test [1] and 47 nM in test [2].
For `CCCC(CCO)Nc1nc(N)nc2ccn(Cc3ccc(CN4CCCC4)cc3)c(=O)c12` (stereo not shown) [Compound I-95, 2-amino-4-((1-hydroxyhexan-3-yl)amino)-6-(4-(pyrrolidin-1-ylmethyl)benzyl)pyrido[4,3-d]pyrimidin-5(6H)-one] the same measures were 65 nM and 46 nM.
For the molecule `CCCC(CCOC(=O)C(F)(F)F)Nc1nc(N)nc2ccn(Cc3ccc(CN4CCCC4)cc3)c(=O)c12` (stereo not shown) [Compound I-96, 3-((2-amino-5-oxo-6-(4-(pyrrolidin-1-ylmethyl)benzyl)-5,6-dihydropyrido[4,3-d]pyrimidin-4-yl)amino)hexyl 2,2,2-trifluoroacetate], the EC50 is 50 nM in test [1] and 31 nM in test [2].
Regarding `CCCCNc1nc(N)nc2ccn(Cc3ccc(CN(CCC)CCO)cc3)c(=O)c12` [Compound I-98, 2-amino-4-(butylamino)-6-(4-(((2-hydroxyethyl)(propyl)amino)methyl)benzyl)pyrido[4,3-d]pyrimidin-5(6H)-one], the EC50 came out at 101 nM in test [1] and 85 nM in test [2].
Take `CCC[C@@H](C)Nc1nc(N)nc2ccn(Cc3ccc(CN4CCCC4)cc3)c(=O)c12` [Compound I-103, (R)-2-amino-4-(pentan-2-ylamino)-6-(4-(pyrrolidin-1-ylmethyl)benzyl)pyrido[4,3-d]pyrimidin-5(6H)-one]: the EC50 turned out to be 64 nM in test [1] and 47 nM in test [2].
Consider `CCC[C@@H](C)Nc1nc(N)nc2ccn(Cc3ccc(C(=O)N4CCNCC4)cc3)c(=O)c12` [Compound I-117, (R)-2-amino-4-(pentan-2-ylamino)-6-(4-(piperazine-1-carbonyl)benzyl)pyrido[4,3-d]pyrimidin-5(6H)-one], for which the EC50 in test [1] is 55 nM; in test [2] it was 49 nM.
`CCCC(CCC)Nc1nc(N)nc2ccn(Cc3ccc(C(=O)N4CCN(CCO)CC4)cc3OC)c(=O)c12` [Compound I-136, 2-amino-4-(heptan-4-ylamino)-6-(4-(4-(2-hydroxyethyl)piperazine-1-carbonyl)-2-methoxybenzyl)pyrido[4,3-d]pyrimidin-5(6H)-one] showed a concentration giving a half-maximal response (EC50) in test [1] of 70 nM.
On the same count and under the same terms, for `CCC[C@@H](CC)Nc1nc(N)nc2ccn(Cc3ccc(C(=O)N4CCNCC4)cc3)c(=O)c12` [Compound I-137, (R)-2-amino-4-(hexan-3-ylamino)-6-(4-(piperazine-1-carbonyl)benzyl)pyrido[4,3-d]pyrimidin-5(6H)-one] the value was 65 nM.
